Tests used:
osteoclast progenitors = experiment: Five-day administration to aged mice: osteoclast differentiation from bone marrow macrophages; format: in vivo, 24-month-old female mice; conditions: bone marrow macrophages from treated mice, cultured with RANKL and M-CSF for 5 days, FIG. 15A and 15B
Protocol: In summary, short-term administration of ABT-263 or Bcl-PROTAC to aged mice decreases senescent osteoprogenitors and osteocytes, as well as the SASP and osteoclastogenesis.
Bone marrow cells were obtained by flushing the tibiae and femurs from the 24 month-old female mice with α-MEM medium (Invitrogen). After the red blood cells were removed with ACK buffer (0.01 mM EDTA, 0.011 M KHCO3, and 0.155 M NH4Cl, pH 7.3), we suspended the cells in α-MEM complete media containing 10% (v/v) fetal bovine serum, 100 U ml-1 penicillin, and 100 μg ml-1 streptomycin and incubated the cells for 24 h in the presence of 10 ng ml-1 M-CSF. We collected the non-adherent cells and cultured with 30 ng ml-1 M-CSF for 3 days to generate bone marrow-derived macrophages. […] We fixed the osteoclast cultures with 10% neutral buffered formalin for 15 min and stained for tartrate-resistant acid phosphatase (TRAP) using the Leukocyte Acid Phosphatase Assay Kit, following the manufacturer's instructions (Sigma-Aldrich). For all assays we plated cells in triplicate.

senescent cells [1] = experiment: Cisplatin-induced peripheral neuropathy (CIPN) in p16-3MR transgenic mice, Von Frey assay and Hot Plate Analgesia Meter; format: in vivo; conditions: GCV 25 mg/kg/day or ABT263 50 mg/kg/day i.p., 5 days per cycle, 2 cycles, FIG. 8-11
Protocol: (§1) CIPN was induced in young adult male and female p16-3MR mice by intraperitoneal (i.p.) injection of cisplatin (Lake Zurich, Ill., USA) at 2.3 mg/kg/d for 5 days per cycle for 2 cycles with an interval of 5 days between the cycles. The induction of CIPN was measured by analyzing the mechanical sensitivity using the Von Frey assay the day before Cisplatin treatment and on various day after Cisplatin treatment. N=5-6 mice per group.
Mice were treated as described in FIG. 8. The induction of CIPN was measured by analyzing the sensitivity to thermal allodynia using the Hot Plate Analgesia Meter on various day after Cisplatin treatment. N=5-6 mice per group.
To determine the effect of senescent cells on the induction of CIPN, cisplatin-treated mice were administered with vehicle, ganciclovir (GCV) at 25 mg/kg/day for 5 days per cycle for 2 cycles with an interval of 17 days between the cycles, or ABT263 at 50 mg/kg/day for 5 days per cycle for 2 cycles with an interval of 17 days between the cycles by i.p. injection at the indicated times after cisplatin treatment. […] The induction of CIPN was measured by analyzing the mechanical sensitivity using the Von Frey assay (FIG. 8 and FIG. 9) and by analyzing the sensitivity to thermal allodynia using the Hot Plate Analgesia Meter (FIG. 10 and FIG. 11) the day before Cisplatin treatment and on various day after Cisplatin treatment.

senescent osteocytes = experiment: Five-day administration to aged mice: western blot and qPCR of osteocyte-enriched femoral bone shafts; format: in vivo, 24-month-old female mice
Protocol: ABT-263 or its derivative Bcl-PROTAC (or vehicles) were administered by daily i.p. injections for 5 days to 24-month-old female mice. […] We have shown that γ-H2AX, p16, GATA4, RANKL and MMP-13 increase, while OPG and Wnt10b decrease with age in bone of female and male mice (Piemontese et al., 2017 JCI Insight).
Osteocyte-enriched femoral cortical bone was prepared by removing the ends, flushing the bone marrow by centrifugation, and removal of surface cells by scraping with a scalpel. Bone fragments were immediately frozen in liquid nitrogen and pulverized. Proteins were extracted with a buffer containing 20 mM Tris-HCL, 150 mM NaCl, 1% Triton X-100, protease inhibitor mixture, and phosphatase inhibitor cocktail (Sigma-Aldrich) on ice for 30 min and then keep on −80° C. for overnight. The protein concentration of the bone extract was determined using the DC Protein Assay Kit (Bio-Rad). The extracted protein ([…] per sample) was subjected to 15% SDS-PAGE gels and transferred electrophoretically onto PVDF membranes. The membranes were blocked in 5% fat-free milk/Tris-buffered saline for 120 min and incubate with each primary antibody followed by secondary antibodies conjugated with horseradish peroxidase. […] Bound antibodies were detected with ECL reagents (Millipore), and imaged and quantified with a VersaDoc™ imaging system (Bio-Rad).
(§2) Total RNA was extracted with Ultraspec (Biotecx Laboratories) and reverse-transcribed using the High-Capacity cDNA Archive Kit (Applied Biosystems) according to the manufacturer's instructions. TaqMan quantitative real-time PCR was performed using the following primers from Applied Biosystems: Rankl (Mm00441908_m1); Mmp-13 (Mm00439491_m1); OPG (Mm00435452_m1); Wnt10b (Mm00442104_m1); IL-1α (Mm99999060_m1); Sdf-1 (Mm00445553_m1); p21 (Mm00432448_m1). Target gene expression was calculated by normalizing to the housekeeping gene ribosomal protein S2 (Mm00475528_m1) using the ΔCt method (Livak and Schmittgen, 2001).

[2] = test system: bone marrow stromal cells; experiment: Five-day administration to aged mice: ex vivo bone marrow stromal cell cultures (qPCR, osteoblast and adipocyte differentiation); format: in vivo, 24-month-old female mice
Source text: We also isolated bone marrow stromal cells from mice treated with vehicle or the senolytics and cultured them for 5 days.
Conversely, bone marrow cells from the mice treated with senolytics cultured in the presence of adipogenic medium had decreased adipogenic potential (FIG. 14C).
as §2
Total bone marrow cells pooled from 3-5 mice from each group were cultured with 20% FBS, 1% PSG and […] of ascorbic acid in 10-cm culture dishes for 5 days. Half of the medium was replaced every 3 days. Bone marrow-derived osteoprogenitor cells were re-plated into 12-well plates and cultured with […] of ascorbic acid and 10 mM b-glycerophosphate for 21 days. Mineralized matrix was stained with 40 mM Alizarin Red solution.
Bone marrow-derived stromal cells were cultured to 70% confluence, and the media supplemented with rosiglitazone (5 nM/m1) or with 3.3% BSA in PBS as vehicle control. Medium containing ligand was changed every 2 d for 11 d. Cells were fixed in 10% formalin in PBS, rinsed, and stained for 30 min with 0.15% Oil Red 0 (Sigma) in a 55:45 mix of isopropanol and water. Cells were counterstained with 0.5% methyl green (Fisher Scientific, Fairlawn, N.J.) in 0.1 M sodium acetate, pH4. Oil Red 0 staining was quantified after extraction of the dye with 1 ml isopropanol and absorbance determination at 490 nm.

senescent cells [3] = experiment: Cisplatin-induced peripheral neuropathy (CIPN) in C57BL/6 mice, Von Frey assay and Hot Plate Analgesia Meter; format: in vivo; conditions: 50 mg/kg/day i.p., 5 days per cycle, 2 cycles, mechanical sensitivity and thermal allodynia, FIG. 5-7
Protocol: as §1, with “C57BL/6” for “p16-3MR”, “Cisplatin” for “cisplatin”, “treatment” for “treatment. N=5-6 mice per group.”
Mice were treated as described in FIG. 1. The induction of CIPN was measured by analyzing the sensitivity to thermal allodynia using the Hot Plate Analgesia Meter on various day after Cisplatin treatment. N=10 for control group and 5 for Cisplatin-treated groups. ***p<0.001 vs. Control.
To determine the effect of senescent cells on the induction of CIPN, Cisplatin-treated mice were administered with vehicle or ABT263 at 50 mg/kg/day for 5 days per cycle for 2 cycles with an interval of 17 days between the cycles by i.p. injection at the indicated times after Cisplatin treatment. The induction of CIPN was measured by analyzing the mechanical sensitivity using the Von Frey assay (FIG. 5 and FIG. 6) and by analyzing the sensitivity to thermal allodynia using the Hot Plate Analgesia Meter (FIG. 7) the day before Cisplatin treatment and on various day after Cisplatin treatment.

platelets = conditions: administration to subjects; platelets rely on Bcl-xl for survival; cited from earlier work
Bcl-xL = biological target: T1, Bcl-xL (Homo sapiens, UniProt Q07817); experiment: Protein degradation assay (western blot) in IR-SC WI38 cells; format: cell-based; conditions: increasing concentrations for 18 hours (FIG. 3A); fixed concentration for increasing times (FIG. 3B)
T1 construct: endogenous in cells; host or cells: IR-SC WI38 cells
Protocol: IR-SC WI38 cells were incubated with vehicle or increasing concentrations of XZ-14439 for 18 hours at increasing […] (FIG. 3A) and at a fixed concentration of XZ-14439 for increasing times (FIG. 3B). The cells were digested with 0.25% trypsin and 1 mM EDTA, and harvested in RIPA lysis buffer with 1% Phosphatase Inhibitor Cocktail 3 and 1% Protease Inhibitor Cocktail. An equal amount of protein (15-30 μg/lane) from each cell extract was resolved on a 12% SDS-PAGE gel. Proteins were blotted onto a NOVEX PVDF membrane by electrophoresis. The membranes were blocked with TBS-T blocking buffer (5% nonfat milk in 25 mM Tris-HCL, pH 7.4; 3 mM KCl; […] NaCl; and 0.05% Tween) and probed with primary antibodies (at a predetermined optimal concentration) overnight at 4° C. or for 1 hour at room temperature. […] After three washes with TBS-T, the proteins of interest were detected with ECL Western Blotting Detection Reagents and recorded with autoradiography (Pierce Biotech, Rockford, Ill., USA). […]
IR-SC WI38 (FIG. 4A) and RS4; 11 (FIG. 4B) cells were incubated with vehicle or increasing concentrations of compounds of Formula (I) or Formula (II) for 6 or 16 hours, at 1 μM (FIG. 4A) and 100 nm (FIG. 4B), respectively. […] After three washes with TBS-T, the proteins of interest were detected with ECL Western Blotting Detection Reagents and recorded with autoradiography. […]

[4] = femoral extracts, qPCR, FIG. 12B
[5] = bone marrow-derived stromal cells from treated mice, ex vivo culture, FIG. 13

T1 sequence (Q07817 whole entry): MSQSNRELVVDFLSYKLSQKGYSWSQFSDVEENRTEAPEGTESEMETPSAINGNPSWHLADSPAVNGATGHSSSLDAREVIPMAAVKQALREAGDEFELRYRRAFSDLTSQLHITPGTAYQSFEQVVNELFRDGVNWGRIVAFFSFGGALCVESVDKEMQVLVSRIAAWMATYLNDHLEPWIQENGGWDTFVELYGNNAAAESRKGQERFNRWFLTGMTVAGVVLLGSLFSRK

| Bcl-xL depletion in IR-SC WI38 cells, dose and time dependence (Bcl-xL) | SMILES | Osteoclastogenic potential (TRAP-positive multinucleated cells) (osteoclast progenitors) | Reversal of cisplatin-induced peripheral neuropathy (senescent cells [1]) | mRNA for OPG (senescent osteocytes; [4]) | mRNA for RANKL and MMP13 (senescent osteocytes; [4]) | Markers of cell senescence: protein levels of γ-H2AX, p16 and GATA4 (senescent osteocytes; osteocyte-enriched femoral bone shafts, daily i.p. for 5 days, western blot, FIG. 12A) | Expression of p21 [2, 5] | mRNA levels of RANKL, MMP-13, IL-1a and SDF-1 [2, 5] | Osteoblastogenic potential (Alizarin Red staining) ([2]; stromal cells from treated mice, 21 days in osteogenic medium, FIG. 14A and 14B) | Reversal of cisplatin-induced peripheral neuropathy (senescent cells [3]) | Thrombocytopenia (platelets) |
| --- | --- | --- | --- | --- | --- | --- | --- | --- | --- | --- | --- |
| – | CC1(C)CCC(c2ccc(Cl)cc2)=C(CN2CCN(c3ccc(C(=O)NS(=O)(=O)c4ccc(N[C@H](CCN5CCOCC5)CSc5ccccc5)c(S(=O)(=O)C(F)(F)F)c4)cc3)CC2)C1 [ABT-263, (R)-4-(4-((4′-chloro-4,4-dimethyl-3,4,5,6-tetrahydro-[1,1′-biphenyl]-2-yl-)methyl)piperazin-1-yl)-N-((4-((4-morpholino-1-(phenylthio)butan-2-yl)amin-o)-3-((trifluoromethyl)sulfonyl)phenyl)sulfonyl)benzamide] | decreased osteoclastogenic potential | reversed cisplatin-induced peripheral neuropathy (CIPN) | increased the mRNA for OPG | decreased the mRNA for RANKL and MMP13 | decreased marker of cell senescence | decreased expression of p21 | decreased mRNA levels of RANKL and MMP-13, as well as IL-1a and SDF-1 | promotes osteoblastogenesis | reversed Cisplatin-induced peripheral neuropathy (CIPN) | cause thrombocytopenia |
| depletes Bcl-xL | CC1(C)CCC(c2ccc(Cl)cc2)=C(CN2CCN(c3ccc(C(=O)NS(=O)(=O)c4ccc(N[C@H](CCN5CCN(C(=O)CCCn6cc(COCCOCCOCCNc7cccc8c7C(=O)N(C7CCC(=O)NC7=O)C8=O)nn6)CC5)CSc5ccccc5)c(S(=O)(=O)C(F)(F)F)c4)cc3)CC2)C1 (stereo partly drawn) [XZ-14439, 4-(4-((4′-chloro-4,4-dimethyl-3,4,5,6-tetrahydro-[1,1′-biphenyl]-2-yl)methyl)piperazin-1-yl)-N-((4-(((2R)-4-(4-(4-(4-((2-(2-(2-((2-(2,6-dioxopiperidin-3-yl)-1,3-dioxoisoindolin-4-yl)amino)ethoxy)ethoxy)ethoxy)methyl)-1H-1,2,3-triazol-1-yl)butanoyl)piperazin-1-yl)-1-(phenylthio)butan-2-yl)amino)-3-((trifluoromethyl)sulfonyl)phenyl)sulfonyl)benzamide] | – | – | – | – | – | – | – | – | – | – |

Reference: patent US20190054097A1, “COMPOSITIONS TARGETING SENESCENT CELLS AND THE USES THEREOF” (BioVentures, LLC, priority 2016, published 2019)
